Where “and” joins values, the source holds several entries; their conditions need not be identical. Identical values can stand only once. Counter-ions that a name gives are not always drawn. Like-named read-outs stand apart in the source and are kept apart here.
Legend:
[1] = tested on: NCI-28H cells; details: for % survival from untreated cells: cells + drug / Average reading: cells + drug / Average absorbance reading: cells + drug / % survival cells after exposure to drug for 72 hrs (cells + drug only) / Average absorbance readings: cells + drug: NCI-28H
[2] = tested on: NCI-2052H cells; assay: Cytotoxicity assay (MTS, CellTiter 96 AQueous One, 490 nm), 72 hrs; format: cell-based; details: for Average reading: cells + drug: absorbance 490 nm
Method: Read absorbance (MTS assay) and calculate cells survival rate. Compare survival rate
1,500,000 cells/440,000=3.4 ml of cells/media mix need to take from flask and transfer to 26.6 ml media. In 50 ml Falcon tube, combine 26.6 ml fresh medium and 3.4 ml cells. Gently mix.
1. Centrifuge tubes at 3200 rpm for 3 min. Take out supernatant.
6. Check the plates and start incubation for 72 hrs at 37° C./5% CO2.
5. Incubate plate 1 hr at 37° C., 5% CO2.
Compare survival rate of cells.
1. […] Protocol how to do that see in previous cytotoxicity experiment.
1. Incubate plate for 72 hrs at 37° C., 5% CO2.
6. Incubate plate 1 hr at 37° C., 5% CO2.

[3] = Talc bound to hot/cold Avidin, 48 hrs wash in PBS containing 10% FBS, absorbance 450 nm; format: physicochemical; details: 48 hrs in PBS containing 10% FBS
Method: Purpose: To check how strong the conjugate of hot/cold Avidin to Talc is. […] Absorbance will be checked twice—once before washing with PBS containing 10% FBS and after 48 hours, washing will be done.
14. […] Two identical microplates need to be set up, labeling them as: plate #1 and plate #2. Design of the plate:
3. Wash both plates 3× with 300 μL PBS.
5. […] Mix constantly, cover plate with Aluminum foil.
6. Add 100 μL of TMB to samples in plate #1.
9. Read absorbance at 450 nm using the plate reader.
3. Collect 100 μL supernatant from samples except native controls and load on same plate.
4. Wash plate except supernatant samples 3× with 300 μL PBS.
6. Add 100 μL of TMB to all samples in plate #2.

N.N.O=C([O-])C1(C(=O)[O-])CCC1.[Pt+2] [Carboplatin]
% survival from untreated cells: cells + drug ([1]; carboplatin 0.006 μM): 90.84% and 94.28% | Average reading: cells + drug ([1]; carboplatin 0.006 μM, absorbance 490 nm): 1.504 | % survival from untreated cells: cells + drug ([1]; carboplatin 0.8 μM): 85.98% and 87.53% | Average reading: cells + drug ([1]; carboplatin 0.8 μM, absorbance 490 nm): 1.4238 | % survival from untreated cells: cells + drug ([1]; carboplatin 4 μM): 96.93% and 93.62% | Average reading: cells + drug ([1]; carboplatin 4 μM, absorbance 490 nm): 1.605 | % survival from untreated cells: cells + drug ([1]; carboplatin 20 μM): 104.81% and 99.20% | Average reading: cells + drug ([1]; carboplatin 20 μM, absorbance 490 nm): 1.7355 | % survival from untreated cells: cells + drug ([1]; carboplatin 100 μM): 83.82% and 79.53% | Average reading: cells + drug ([1]; carboplatin 100 μM, absorbance 490 nm): 1.388 | % survival from untreated cells: cells + drug ([1]; carboplatin 500 μM): 37.38% and 35.14% | Average reading: cells + drug ([1]; carboplatin 500 μM, absorbance 490 nm): 0.6189

Nc1ccn([C@@H]2O[C@H](CO)[C@@H](O)C2(F)F)c(=O)n1 [gemcitabine, Gemcitabine]
cytotoxicity to NCI-28H cells, comparison [1]: clear cytotoxic effect | % survival from untreated cells: cells + drug ([1]; gemcitabine 0.0026 μM): 114.61% | Average absorbance reading: cells + drug ([1]; gemcitabine 0.0026 μM): 2.034 | % survival from untreated cells: cells + drug ([1]; gemcitabine 0.013 μM): 107.85% | Average absorbance reading: cells + drug ([1]; gemcitabine 0.013 μM): 1.914 | % survival from untreated cells: cells + drug ([1]; gemcitabine 0.064 μM): 80.60% | Average absorbance reading: cells + drug ([1]; gemcitabine 0.064 μM): 1.43 | % survival from untreated cells: cells + drug ([1]; gemcitabine 8 μM): 56.58% | Average absorbance reading: cells + drug ([1]; gemcitabine 8 μM): 1.004 | % survival from untreated cells: cells + drug ([1]; gemcitabine 40 μM): 60.09% | Average absorbance reading: cells + drug ([1]; gemcitabine 40 μM): 1.0663 | % survival from untreated cells: cells + drug ([1]; gemcitabine 200 μM): 52.70% | Average absorbance reading: cells + drug ([1]; gemcitabine 200 μM): 0.9352

CO[C@@]12[C@H](COC(N)=O)C3=C(C(=O)C(C)=C(N)C3=O)N1C[C@@H]1N[C@@H]12 [mitomycin, Mitomycin]
Average reading: cells + drug ([2]; mitomycin 0.013 μM): 1.284 | Average reading: cells + drug ([2]; mitomycin 0.064 μM): 1.199 | Average reading: cells + drug ([2]; mitomycin 8 μM): 0.4142 | Average reading: cells + drug ([2]; mitomycin 40 μM): 0.2305 | Average reading: cells + drug ([2]; mitomycin 200 μM): 0.2098 | Average reading: cells + drug ([2]; mitomycin .0026 μM): 1.424 | % survival cells after exposure to drug for 72 hrs (cells + drug only) ([1]; mitomycin 0.0026 μM, 72 hrs): 106.12% | Average absorbance readings: cells + drug ([1]; mitomycin 0.0026 μM): 2.032 | % survival cells after exposure to drug for 72 hrs (cells + drug only) ([1]; mitomycin 0.013 μM, 72 hrs): 102.65% | Average absorbance readings: cells + drug ([1]; mitomycin 0.013 μM): 1.965 | % survival cells after exposure to drug for 72 hrs (cells + drug only) ([1]; mitomycin 0.064 μM, 72 hrs): 98.03% | Average absorbance readings: cells + drug ([1]; mitomycin 0.064 μM): 1.8766 | % survival cells after exposure to drug for 72 hrs (cells + drug only) ([1]; mitomycin 8 μM, 72 hrs): 18.03% | Average absorbance readings: cells + drug ([1]; mitomycin 8 μM): 0.3451 | % survival cells after exposure to drug for 72 hrs (cells + drug only) ([1]; mitomycin 40 μM, 72 hrs): 27.16% | Average absorbance readings: cells + drug ([1]; mitomycin 40 μM): 0.52 | % survival cells after exposure to drug for 72 hrs (cells + drug only) ([1]; mitomycin 200 μM, 72 hrs): 12.87% | Average absorbance readings: cells + drug ([1]; mitomycin 200 μM): 0.2464

Avidin: Avidin from egg white (Sigma A9275), 66 kDa biotin-binding protein; unlabeled = cold Avidin
binding of Avidin to talc at 48 hours [3]: unchanged

CC(=O)O[C@H]1C(=O)[C@@]2(C)[C@H]([C@H](OC(=O)c3ccccc3)[C@]3(O)C[C@H](OC(=O)[C@H](O)[C@@H](NC(=O)c4ccccc4)c4ccccc4)C(C)=C1C3(C)C)[C@]1(OC(C)=O)CO[C@@H]1C[C@@H]2O [Paclitaxel]
Average reading: cells + drug ([2]; paclitaxel 0.256 nM): 1.4273 | Average reading: cells + drug ([2]; paclitaxel 6.4 nM): 1.54 | Average reading: cells + drug ([2]; paclitaxel 32 nM): 0.5818 | Average reading: cells + drug ([2]; paclitaxel 160 nM): 0.4361 | Average reading: cells + drug ([2]; paclitaxel 800 nM): 0.4326 | Average reading: cells + drug ([2]; paclitaxel 4000 nM): 0.553 | Average reading: cells + drug ([2]; paclitaxel 20,000 nM): 0.1647 | Average readings: cells + drug ([1]; Paclitaxel 80 nM, absorbance 490 nm): 1.10

N.N.[Cl][Pt][Cl] [Cisplatin]
cytotoxicity to NCI-28H cells, comparison [1]: no noticeable difference in toxicity | Average reading: cells + cisplatin ([1]; 72 hrs, Cisplatin 20 μM): 0.48 | Average reading: cells + cisplatin ([1]; 72 hrs, Cisplatin 100 μM): 0.59

COc1cccc2c1C(=O)c1c(O)c3c(c(O)c1C2=O)C[C@@](O)(C(=O)CO)C[C@@H]3O[C@H]1C[C@H](N)[C@H](O)[C@H](C)O1 [DOX, Doxorubicin Hydrochloride]
% survival from untreated cells ([2]; doxorubicin 400 nM): 57.76% | % survival from untreated cells ([2]; doxorubicin 2000 nM): 25.59% | % survival from untreated cells ([2]; doxorubicin 10,000 nM): 18.91% | AVERAGE: cells + DOX (absorbance) ([1]; 72 hrs, DOX 0.000064 μM): 1.18 | AVERAGE: cells + DOX (absorbance) ([1]; 72 hrs, DOX 0.2 μM): 0.89 | AVERAGE: cells + DOX (absorbance) ([1]; 72 hrs, DOX 1 μM): 0.67 | AVERAGE: cells + DOX (absorbance) ([1]; 72 hrs, DOX 5 μM): 0.63 | % survival from untreated by DOX cells ([1]; 72 hrs, Dox 200 nM): 65.0% | % survival NCI-28H cells after different treatment (compare to untreated cells) ([1]; cells + 125 nM DOX): 70%
